From PubChem BioAssay (NCI)
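Five compound concentrations were applied to cells in 96-well plates for 48 hours; endpoints were derived by simple linear interpolation of the resulting dose-response curve. TGI denotes the concentration required for complete inhibition of growth.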

Columns and labels:
Assay in all cases: growth of human tumour cells (NCI), 48 h
[1] = test system: SF-295 CNS
[2] = test system: MDA-MB-435
[3] = test system: LOX IMVI melanoma
[4] = test system: NCI-H460 lung
[5] = test system: SF-539 CNS
[6] = test system: SW-620 colon
[7] = test system: A549 NSCLC
[8] = test system: T-47D breast
[9] = test system: MDA-N
[10] = test system: HT29 colon
[11] = test system: DU-145 prostate
[12] = test system: CAKI-1 renal
[13] = test system: K-562 leukemia
[14] = test system: OVCAR-8 ovarian
[15] = test system: A498 renal
[16] = test system: NCI/ADR-RES ovarian
[17] = test system: OVCAR-5 ovarian
[18] = test system: U251 CNS
[19] = test system: OVCAR-3 ovarian
[20] = test system: 786-0 renal
[21] = test system: TK-10 renal
[22] = test system: M14 melanoma
[23] = test system: NCI-H23 lung
[24] = test system: HCT-15 colon
[25] = test system: SK-MEL-28 melanoma
[26] = test system: CCRF-CEM leukemia
[27] = test system: HCC-2998 colon
[28] = test system: MOLT-4 leukemia
[29] = test system: UO-31 renal
[30] = test system: HOP-92 NSCLC
[31] = test system: HOP-62 NSCLC
[32] = test system: ACHN renal
[33] = test system: KM12 colon
[34] = test system: OVCAR-4 ovarian
[35] = test system: NCI-H522 lung
[36] = test system: SK-OV-3 ovarian
[37] = test system: HS 578T breast
[38] = test system: EKVX NSCLC
[39] = test system: MDA-MB-231 breast
[40] = test system: HCT-116 colon
[41] = test system: COLO 205 colon
[42] = test system: PC-3 prostate
[43] = test system: MALME-3M melanoma
[44] = test system: NCI-H226 lung
[45] = test system: SN12C renal
[46] = test system: RPMI-8226 leukemia
[47] = test system: BT-549 breast
[48] = test system: IGROV1 ovarian
[49] = test system: UACC-257 melanoma
[50] = test system: SF-268 CNS
[51] = test system: SK-MEL-5 melanoma
[52] = test system: UACC-62 melanoma
[53] = test system: SR leukemia
[54] = test system: SNB-19 CNS
[55] = test system: MCF7 breast
[56] = test system: SK-MEL-2 melanoma
[57] = test system: HL-60(TB) leukemia
[58] = test system: SNB-75 CNS

## N#CCN1c2ccccc2CCC1Cl (stereo not given)
[1]
  TGI: > 10 µM
[2]
  TGI: > 10 µM
[3]
  TGI: > 10 µM
[4]
  TGI: > 10 µM
[5]
  TGI: > 10 µM
[6]
  TGI: > 10 µM
[7]
  TGI: > 10 µM
[8]
  TGI: > 10 µM
[9]
  TGI: > 10 µM
[10]
  TGI: > 10 µM
[11]
  TGI: > 10 µM
[12]
  TGI: > 10 µM
[13]
  TGI: > 10 µM
[14]
  TGI: > 10 µM
[15]
  TGI: > 10 µM
[16]
  TGI: > 10 µM
[17]
  TGI: > 10 µM
[18]
  TGI: > 10 µM
[19]
  TGI: > 10 µM
[20]
  TGI: > 10 µM
[21]
  TGI: > 10 µM
[22]
  TGI: > 10 µM
[23]
  TGI: > 10 µM
[24]
  TGI: > 10 µM
[25]
  TGI: > 10 µM
[26]
  TGI: > 10 µM
[27]
  TGI: > 10 µM
[28]
  TGI: > 10 µM
[29]
  TGI: > 10 µM
[30]
  TGI: > 10 µM
[31]
  TGI: > 10 µM
[32]
  TGI: > 10 µM
[33]
  TGI: > 10 µM
[34]
  TGI: > 10 µM
[35]
  TGI: > 10 µM
[36]
  TGI: > 10 µM
[37]
  TGI: > 10 µM
[38]
  TGI: > 10 µM
[39]
  TGI: > 10 µM
[40]
  TGI: > 10 µM
[41]
  TGI: > 10 µM
[42]
  TGI: > 10 µM
[43]
  TGI: > 10 µM
[44]
  TGI: > 10 µM
[45]
  TGI: > 10 µM
[46]
  TGI: > 10 µM
[47]
  TGI: > 10 µM
[48]
  TGI: > 10 µM
[49]
  TGI: > 10 µM
[50]
  TGI: > 10 µM
[51]
  TGI: > 10 µM
[52]
  TGI: > 10 µM
[53]
  TGI: > 10 µM
[54]
  TGI: > 10 µM
[55]
  TGI: > 10 µM

## C/C(=N\NC(=O)Nc1ccccc1Cl)c1ccc(O)cc1
[1]
  TGI: > 100 µM
[2]
  TGI: > 100 µM
[3]
  TGI: > 100 µM
[4]
  TGI: > 100 µM
[5]
  TGI: > 100 µM
[6]
  TGI: > 100 µM
[7]
  TGI: > 100 µM
[8]
  TGI: > 100 µM
[9]
  TGI: > 100 µM
[10]
  TGI: > 100 µM
[11]
  TGI: > 100 µM
[12]
  TGI: > 100 µM
[13]
  TGI: > 100 µM
[14]
  TGI: > 100 µM
[16]
  TGI: > 100 µM
[17]
  TGI: > 100 µM
[18]
  TGI: > 100 µM
[19]
  TGI: > 100 µM
[20]
  TGI: > 100 µM
[56]
  TGI: > 100 µM
[21]
  TGI: > 100 µM
[57]
  TGI: > 100 µM
[22]
  TGI: > 100 µM
[23]
  TGI: > 100 µM
[24]
  TGI: > 100 µM
[25]
  TGI: > 100 µM
[26]
  TGI: > 100 µM
[27]
  TGI: > 100 µM
[28]
  TGI: > 100 µM
[29]
  TGI: > 100 µM
[30]
  TGI: > 100 µM
[32]
  TGI: > 100 µM
[33]
  TGI: > 100 µM
[34]
  TGI: > 100 µM
[35]
  TGI: > 100 µM
[36]
  TGI: > 100 µM
[37]
  TGI: > 100 µM
[38]
  TGI: > 100 µM
[39]
  TGI: > 100 µM
[40]
  TGI: > 100 µM
[41]
  TGI: > 100 µM
[42]
  TGI: > 100 µM
[58]
  TGI: 75.8 µM
[43]
  TGI: > 100 µM
[44]
  TGI: > 100 µM
[45]
  TGI: > 100 µM
[46]
  TGI: > 100 µM
[47]
  TGI: > 100 µM
[48]
  TGI: > 100 µM
[49]
  TGI: > 100 µM
[50]
  TGI: > 100 µM
[51]
  TGI: > 100 µM
[52]
  TGI: > 100 µM
[53]
  TGI: > 100 µM
[54]
  TGI: > 100 µM
[55]
  TGI: > 100 µM

## COC(OC)(c1ccccc1)C(Br)Br
[1]
  TGI: > 100 µM
[2]
  TGI: > 100 µM
[3]
  TGI: > 100 µM
[4]
  TGI: > 100 µM
[6]
  TGI: 34.5 µM
[7]
  TGI: > 100 µM
[8]
  TGI: > 100 µM
[9]
  TGI: > 100 µM
[10]
  TGI: > 100 µM
[11]
  TGI: > 100 µM
[12]
  TGI: 48.5 µM
[13]
  TGI: 71.6 µM
[14]
  TGI: > 100 µM
[15]
  TGI: > 100 µM
[16]
  TGI: > 100 µM
[17]
  TGI: > 100 µM
[18]
  TGI: > 100 µM
[19]
  TGI: > 100 µM
[20]
  TGI: 69.4 µM
[56]
  TGI: > 100 µM
[57]
  TGI: > 100 µM
[22]
  TGI: 37.8 µM
[23]
  TGI: > 100 µM
[24]
  TGI: 42.4 µM
[25]
  TGI: > 100 µM
[26]
  TGI: 42.6 µM
[27]
  TGI: > 100 µM
[28]
  TGI: 74.2 µM
[29]
  TGI: > 100 µM
[31]
  TGI: > 100 µM
[32]
  TGI: > 100 µM
[33]
  TGI: > 100 µM
[35]
  TGI: 33 µM
[36]
  TGI: > 100 µM
[37]
  TGI: > 100 µM
[38]
  TGI: > 100 µM
[39]
  TGI: > 100 µM
[40]
  TGI: 37.2 µM
[41]
  TGI: 39.2 µM
[42]
  TGI: > 100 µM
[58]
  TGI: > 100 µM
[43]
  TGI: 43.8 µM
[44]
  TGI: > 100 µM
[45]
  TGI: > 100 µM
[46]
  TGI: > 100 µM
[47]
  TGI: > 100 µM
[48]
  TGI: > 100 µM
[49]
  TGI: > 100 µM
[50]
  TGI: > 100 µM
[51]
  TGI: > 100 µM
[52]
  TGI: > 100 µM
[53]
  TGI: 70.6 µM
[54]
  TGI: > 100 µM
[55]
  TGI: > 100 µM
